Experimental data reported in US10314820B2, “Imidazole-based heterocyclic compounds” (priority 2014, dated 2019).

Key:
[1] = test system: Human keratinocytes (HaCaT cells); experiment: Human cytotoxicity assay in vitro (CellTiter-Glo), keratinocytes; type: cell-based; settings: keratinocyte cytotoxicity score; 24 h exposure
[2] = test system: Human hepatocytes (HepaRG cells); experiment: Human cytotoxicity assay in vitro (CellTiter-Glo), hepatocytes; type: cell-based; settings: hepatocyte cytotoxicity score; 24 h exposure
[3] = test system: Streptococcus pneumoniae (Chester, ATCC49619); experiment: Broth microdilution MIC assay, Streptococcus pneumoniae; type: cell-based; settings: Table AA; MIC score
[4] = test system: Staphylococcus aureus MRSA (COL); type: cell-based; settings: Table AA; MIC score
[5] = test system: Staphylococcus aureus MSSA (Newman); experiment: Broth microdilution MIC assay, MSSA; type: cell-based; settings: Table AA; MIC score
[6] = test system: moenomycin-resistant Staphylococcus aureus (from MRSA, COL); settings: Table BB, MIC score
[7] = test system: Enterococcus faecium (AGR15, ATCCBAA-2127); experiment: Broth microdilution MIC assay, Enterococcus faecium; type: cell-based; settings: Table BB; MIC score
[8] = test system: linezolid-resistant Staphylococcus aureus (from MRSA, COL); experiment: microbe, parasite or virus in culture; type: cell-based; settings: Table BB; MIC score; linezolid-resistant MRSA
[9] = test system: vancomycin-resistant Staphylococcus aureus (from MRSA, COL); experiment: microbe, parasite or virus in culture; type: cell-based; settings: Table BB; MIC score; vancomycin-resistant MRSA
[10] = test system: Escherichia coli TolC mutant strain ΔtolC; type: cell-based; settings: Table BB; MIC score
[11] = test system: platensimycin-resistant Staphylococcus aureus (from MRSA, COL); experiment: microbe, parasite or virus in culture; type: cell-based; settings: read-out: MIC for the resistant strain
[12] = test system: MRSA (COL) resistant to triclosan; experiment: microbe, parasite or virus in culture; settings: Staphylococcus aureus, read-out: MIC values of resistant strains

Row | Structure (SMILES) | cytotoxicity cell line K [1] | cytotoxicity cell line H [2] | Antibacterial activity Streptococcus pneumoniae [3] | Antibacterial activity Staphylococcus aureus (MRSA) [4] | Antibacterial activity Staphylococcus aureus (MSSA) [5] | antibacterial activity MRSA strains with additional resistance to M [6] | antibacterial activity EFm [7] | antibacterial activity MRSA strains with additional resistance to L [8] | antibacterial activity MRSA strains with additional resistance to V [9] | antibacterial activity EC Δ [10] | MIC [11] [µg/mL] | MIC [12] [µg/mL]
1 | Cc1[nH]c(-c2ccc(-c3ccc(OC(F)(F)F)c(Cl)c3)o2)nc1-c1ccc(Cl)cc1 [Compound 50] | 1 (compounds causing less than 50% inhibition of cell viability at 50 μM) | 1 (compounds not causing a loss of viability at concentrations between 25 and 50 μM) | 3 (the compound has an MIC100 of 2-5 μg/ml) | 2 (the compound has an MIC100 of 11-20 μg/ml) | 3 (the compound has an MIC100 of 3-10 μg/ml) | – | – | – | – | – | – | –
2 | CN(C)Cc1[nH]c(-c2ccc(-c3ccccc3C(F)(F)F)o2)nc1-c1ccccc1 [Compound 70] | 2 (compounds causing>50% inhibition of cell viability at 25 μM) | 3 | 3 (the compound has an MIC100 of 2-5 μg/ml) | 1 (the compound has an MIC100 of 20-50 μg/ml or an MIC50 of <10 μg/ml) | 1 (the compound has an MIC100 of 20-50 μg/ml or an MIC50 of <10 μg/ml) | 1 (the compound has an MIC100 of 20-50 μg/ml or an MIC50 of <10 μg/ml) | 2 (the compound has an MIC100 of 11-20 μg/ml) | 1 (the compound has an MIC100 of 20-50 μg/ml or an MIC50 of <10 μg/ml) | 1 (the compound has an MIC100 of 20-50 μg/ml or an MIC50 of <10 μg/ml) | 3 (the compound has an MIC100 of 3-10 μg/ml) | – | –
3 | CC12C[C@@]34C=CC(=O)[C@@](C)(CCC(=O)Nc5c(O)ccc(C(=O)O)c5O)C3[C@H](CC1C4)O2 (some centres unmarked) [platensimycin] | – | – | – | – | – | – | – | – | – | – | > 10 | –
4 | Oc1cc(Cl)ccc1Oc1ccc(Cl)cc1Cl [triclosan] | – | – | – | – | – | – | – | – | – | – | – | > 20
